Laboratory results taken from US9339463B2, “Micronized opioid compositions having a specific particle size distribution” (priority 2007, dated 2016).
Values joined by “and” are separate entries in the source; they are usually repeats but may differ in a detail not shown here. Equal values may be shown once.

What was measured:
Assay type in all cases: physicochemical
[1] = Particle size distribution by laser diffraction (Malvern Mastersizer 2000), oxycodone base
[2] = Particle size by optical microscopy, number % undersize; settings: mean diameter
Protocol: As a secondary analytical method, the micronized and the non-micronized oxycodone analyzed by laser diffraction with results shown in Table 1, were analyzed by optical microscopy to evaluate particle size and the results are shown in Table 2. Sample aliquots (˜50 mg for micronized and ˜225 mg for non-micronized) were dispersed in 10 ml of sunflower oil and viewed on a Nikon microscope equipped with a 10× objective. Particle size (mean diameter) was determined using Image Pro® Plus software and expressed as a number % undersize. The particle size values determined by optical microscopy as shown in Table 2 are consistent with the laser diffraction particle size data shown in Table 1.

[3] = Chemical stability on storage: assay and impurities
Protocol: Samples of Example 2 and additional samples comprising micronized and non-micronized oxycodone useful for exemplary dosage forms are tested for their chemical stability and physical stability. Based on a comparison of stability data from micronized and non-micronized samples stored at both 25° C./60% RH and 40 C.°/75% RH, no differences are observed in the impurity profile through three months of study as shown in Tables 4 and 5 for exemplary lots. The impurities analyzed include (HOXY), 14-Hydroxycodeinone; (DHOXYN), 7,8-Dihydro-8,14-Dihydroxycodeinone; (DHOXY), 7,8-Dihydro-14-hydroxycodeine; (OXYE), Oxycodone ethylenolate; (OXYN), 1-Hydroxyoxycodone and Oxycodone N-oxide. Most of the impurities are found to be below the limit of quantitation (LOQ), except for HOXY and DHOXYN which were unchanged at 0.1%. […] The solid state stability of the micronized oxycodone is monitored for particle size, XRPD, DSC, and microscopy as shown in Table 6.

[4] = Physical stability on storage: particle size (Dv90) by laser diffraction
[5] = Table 1 analysis, lot 2 in duplicate
[6] = Time 0, listed as Non-micronized Oxycodone Free Base
[7] = additional laser diffraction analysis, Table 3
[8] = 1 month, stored, including at 25° C./60% RH and/or 40° C./75% RH (not specified)
[9] = 3 months, stored, including at 25° C./60% RH and/or 40° C./75% RH (not specified)
[10] = 6 months, stored, including at 25° C./60% RH and/or 40° C./75% RH (not specified)
[11] = 9 months, stored, including at 25° C./60% RH and/or 40° C./75% RH (not specified)
[12] = 12 months, stored, including at 25° C./60% RH and/or 40° C./75% RH (not specified)

## COc1ccc2c3c1O[C@H]1C(=O)CC[C@@]4(O)[C@@H](C2)N(C)CC[C@]314 [Lot 2 (waste), oxycodone]
[1]; [5]
  Particle size (Dv10): 0.5, 0.5 μ
  Particle size (Dv50): 1.6 μ and 2.3 μ
  Particle size (Dv90): 3.3 μ and 4.9 μ

## COc1ccc2c3c1O[C@H]1C(=O)CC[C@@]4(O)[C@@H](C2)N(C)CC[C@]314 [Non-micronized, oxycodone]
[2]
  % ≦ 1μ: 21.4%
  % ≦ 5μ: 50.7%
  % ≦ 10μ: 69.1%
[3]; 25° C./60% RH, 1 mo
  1-HydroxyOXY: <LOQ
  DHOXY (7,8-Dihydro-14-hydroxycodeine): <LOQ
  DHOXYN (7,8-Dihydro-8,14-Dihydroxycodeinone): 0.10%
  HOXY (14-Hydroxycodeinone): 0.08%
  OXYE (Oxycodone ethylenolate): <LOQ
  OXYN: <LOQ
  Other (impurities; Table 5: >0.05%): <LOQ
  Total impurities: 0.18%
[3]; 25° C./60% RH, 1 mo, listed as Non-micronized Oxycodone Free Base
  Assay: 99.6%
[3]; 25° C./60% RH, 3 mo
  1-HydroxyOXY: <LOQ
  DHOXY (7,8-Dihydro-14-hydroxycodeine): <LOQ
  DHOXYN (7,8-Dihydro-8,14-Dihydroxycodeinone): 0.10%
  HOXY (14-Hydroxycodeinone): 0.08%
  OXYE (Oxycodone ethylenolate): <LOQ
  OXYN: <LOQ
  Other (impurities; Table 5: >0.05%): <LOQ
  Total impurities: 0.18%
[3]; 25° C./60% RH, 3 mo, listed as Non-micronized Oxycodone Free Base
  Assay: 99.6%
[3]; 40° C./75% RH, 1 mo
  1-HydroxyOXY: <LOQ
  DHOXY (7,8-Dihydro-14-hydroxycodeine): <LOQ
  DHOXYN (7,8-Dihydro-8,14-Dihydroxycodeinone): 0.10%
  HOXY (14-Hydroxycodeinone): 0.08%
  OXYE (Oxycodone ethylenolate): <LOQ
  OXYN: <LOQ
  Total impurities: 0.18%
[3]; 40° C./75% RH, 1 mo, listed as Non-micronized Oxycodone Free Base
  Assay: 99.6%
[3]; 40° C./75% RH, 3 mo
  1-HydroxyOXY: <LOQ
  DHOXY (7,8-Dihydro-14-hydroxycodeine): <LOQ
  DHOXYN (7,8-Dihydro-8,14-Dihydroxycodeinone): 0.10%
  HOXY (14-Hydroxycodeinone): 0.08%
  OXYE (Oxycodone ethylenolate): <LOQ
  OXYN: <LOQ
  Other (impurities; Table 5: >0.05%): <LOQ
  Total impurities: 0.18%
[3]; 40° C./75% RH, 3 mo, listed as Non-micronized Oxycodone Free Base
  Assay: 99.5%
[3]; Time 0
  1-HydroxyOXY: <LOQ
  DHOXY (7,8-Dihydro-14-hydroxycodeine): <LOQ
  OXYE (Oxycodone ethylenolate): <LOQ
  OXYN: <LOQ
  Other (impurities; Table 5: >0.05%): <LOQ
  Total impurities: 0.18%
[3]; [6]
  Assay: 101.1%
  DHOXYN (7,8-Dihydro-8,14-Dihydroxycodeinone): 0.10%
  HOXY (14-Hydroxycodeinone): 0.08%
[1]; [5]
  Particle size (Dv10): 5.7 μ
  Particle size (Dv50): 20.5 μ
  Particle size (Dv90): 55.5 μ
[1]; Table 1 analysis, lot 2 in duplicate, listed as non-micronized sample
  Particle size (Dv90): 56 μ
[1]; [7]
  Particle size (Dv10): 4.9 μ
  Particle size (Dv50): 20.1 μ
  Particle size (Dv90): 50.9 μ
[1]; additional laser diffraction analysis, Table 3, listed as non-micronized
  Particle size (Dv90): 51 μ
[1]; oxycodone base before micronization
  mean particle size: 51 μ

## COc1ccc2c3c1O[C@H]1C(=O)CC[C@@]4(O)[C@@H](C2)N(C)CC[C@]314 [first high purity lot, oxycodone]
[4]; [8]
  Particle size (Dv90): 5 μ
[4]; [9]
  Particle size (Dv90): 5 μ
[4]; [10]
  Particle size (Dv90): 5 μ
[4]; [11]
  Particle size (Dv90): 6 μ
[4]; [12]
  Particle size (Dv90): 6 μ
[4]; 25° C./60% RH, 1 month, listed as first high purity micronized lot
  Particle size (Dv90): 4 μ
[4]; 25° C./60% RH, 3 months, listed as first high purity micronized lot
  Particle size (Dv90): 5 μ
[4]; 25° C./60% RH, 6 months, listed as first high purity micronized lot
  Particle size (Dv90): 5 μ
[4]; 25° C./60% RH, 9 months, listed as first high purity micronized lot
  Particle size (Dv90): 7 μ
[4]; 25° C./60% RH, 12 months, listed as first high purity micronized lot
  Particle size (Dv90): 6 μ
[4]; 40° C./75% RH, 1 month, listed as first high purity micronized lot
  Particle size (Dv90): 5 μ
[4]; 40° C./75% RH, 3 months, listed as first high purity micronized lot
  Particle size (Dv90): 5 μ
[4]; 40° C./75% RH, 6 months, listed as first high purity micronized lot
  Particle size (Dv90): 5 μ
[4]; Time 0
  Particle size (Dv90): 4 μ
[4]; Time 0, listed as first high purity micronized lot
  Particle size (Dv90): 4 μ

## COc1ccc2c3c1O[C@H]1C(=O)CC[C@@]4(O)[C@@H](C2)N(C)CC[C@]314 [first lot, oxycodone]
[4]; 25° C./60% RH, 6 months
  Particle size (Dv90): 7 μ
[4]; 25° C./60% RH, 9 months
  Particle size (Dv90): 6 μ
[4]; 25° C./60% RH, 12 months
  Particle size (Dv90): 7 μ
[4]; Time 0
  Particle size (Dv90): 6 μ

## COc1ccc2c3c1O[C@H]1C(=O)CC[C@@]4(O)[C@@H](C2)N(C)CC[C@]314 [micronized oxycodone preparation, oxycodone]
[4]; Time 0
  Particle size (Dv90): 5-6 μ
[4]; stored at 25° C./60% RH and 40°/75% RH, 3 months
  Particle size (Dv90 at three months): 6-11 μ

## COc1ccc2c3c1O[C@H]1C(=O)CC[C@@]4(O)[C@@H](C2)N(C)CC[C@]314 [second high purity lot, oxycodone]
[4]; [8]
  Particle size (Dv90): 4 μ
[4]; [9]
  Particle size (Dv90): 4 μ
[4]; [10]
  Particle size (Dv90): 5 μ
[4]; [11]
  Particle size (Dv90): 5 μ
[4]; [12]
  Particle size (Dv90): 5 μ
[4]; 25° C./60% RH, 1 month, listed as second high purity micronized lot
  Particle size (Dv90): 4 μ
[4]; 25° C./60% RH, 3 months, listed as second high purity micronized lot
  Particle size (Dv90): 4 μ
[4]; 25° C./60% RH, 6 months, listed as second high purity micronized lot
  Particle size (Dv90): 6 μ
[4]; 25° C./60% RH, 9 months, listed as second high purity micronized lot
  Particle size (Dv90): 5 μ
[4]; 25° C./60% RH, 12 months, listed as second high purity micronized lot
  Particle size (Dv90): 6 μ
[4]; 40° C./75% RH, 1 month, listed as second high purity micronized lot
  Particle size (Dv90): 5 μ
[4]; 40° C./75% RH, 3 months, listed as second high purity micronized lot
  Particle size (Dv90): 5 μ
[4]; 40° C./75% RH, 6 months, listed as second high purity micronized lot
  Particle size (Dv90): 6 μ
[4]; Time 0
  Particle size (Dv90): 4 μ
[4]; Time 0, listed as second high purity micronized lot
  Particle size (Dv90): 4 μ

## COc1ccc2c3c1O[C@H]1C(=O)CC[C@@]4(O)[C@@H](C2)N(C)CC[C@]314 [second lot, oxycodone]
[4]; 25° C./60% RH, 6 months
  Particle size (Dv90): 5 μ
[4]; 25° C./60% RH, 9 months
  Particle size (Dv90): 6 μ
[4]; 25° C./60% RH, 12 months
  Particle size (Dv90): 6 μ
[4]; Time 0
  Particle size (Dv90): 4 μ

## COc1ccc2c3c1O[C@H]1C(=O)CC[C@@]4(O)[C@@H](C2)N(C)CC[C@]314 [third high purity lot, oxycodone]
[4]; [8]
  Particle size (Dv90): 4 μ
[4]; [9]
  Particle size (Dv90): 4 μ
[4]; [10]
  Particle size (Dv90): 5 μ
[4]; [11]
  Particle size (Dv90): 5 μ
[4]; [12]
  Particle size (Dv90): 5 μ
[4]; 25° C./60% RH, 1 month, listed as third high purity micronized lot
  Particle size (Dv90): 4 μ
[4]; 25° C./60% RH, 3 months, listed as third high purity micronized lot
  Particle size (Dv90): 4 μ
[4]; 25° C./60% RH, 6 months, listed as third high purity micronized lot
  Particle size (Dv90): 5 μ
[4]; 25° C./60% RH, 9 months, listed as third high purity micronized lot
  Particle size (Dv90): 5 μ
[4]; 25° C./60% RH, 12 months, listed as third high purity micronized lot
  Particle size (Dv90): 5 μ
[4]; 40° C./75% RH, 1 month, listed as third high purity micronized lot
  Particle size (Dv90): 4 μ
[4]; 40° C./75% RH, 3 months, listed as third high purity micronized lot
  Particle size (Dv90): 5 μ
[4]; 40° C./75% RH, 6 months, listed as third high purity micronized lot
  Particle size (Dv90): 5 μ
[4]; Time 0
  Particle size (Dv90): 5 μ
[4]; Time 0, listed as third high purity micronized lot
  Particle size (Dv90): 5 μ

## COc1ccc2c3c1O[C@H]1C(=O)CC[C@@]4(O)[C@@H](C2)N(C)CC[C@]314 [third lot, oxycodone]
[4]; 25° C./60% RH, 6 months
  Particle size (Dv90): 6 μ
[4]; 25° C./60% RH, 9 months
  Particle size (Dv90): 6 μ
[4]; 25° C./60% RH, 12 months
  Particle size (Dv90): 7 μ
[4]; Time 0
  Particle size (Dv90): 4 μ
